The test system of experiment [1] is carious dentin tissue in infected teeth. Kind of experiment: Staining of caries-infected tooth slices, retention after NaCl and NaOH incubation (Example 2). The settings on record: for colouring of tooth slice after NaCl and NaOH treatment (Day 4): after 1 M NaCl and 0.5 M NaOH overnight incubations, visible light, UV or fluorescence microscopy; for mode of binding to carious tissue in infected teeth (conclusion): conclusion of Example 2. Here is the method:
Experiments were performed during 4 days. Whole caries infected tooth was added to an ortho acryl gel, which after hardening was used as a holder prior to […] of brand Zaw Micro Tone, German). Slices, having a thickness of 150 μm, were left over night in each colour to be tested (Day one). On the second day, the colours were washed out by rinsing the slices with MQ water and the teeth sections were photographed under either a microscope (6.7×; visible light), in UV (no microscope) or under a fluorescence microscope (100×). Thereafter, an aqueous salt solution (NaCl, 1 M) was added to the slices and incubated overnight. On the third day the slices were washed with MQ water and thereafter the same detection procedures were used as described above. Finally the tooth slices were exposed to an aqueous solution of NaOH (0.5 M) over night. The washing and detection path were then repeated as described previously (Day 4).

In experiment [2] the test system is healthy dentin tissue. As to the kind of experiment: FTIR of healthy dentin tissue treated with hydrazine derivative (Example 3). On the set-up: species or system human. The settings on record: 13 mM aqueous solution overnight, FIGS. 3a and 3c. The source says: (§1) Extracted permanent human teeth with no previous dental restorations were selected due to their severe carious tissue status and analysed with FTIR within one week after extraction. The outermost part of the carious dental lesions was removed. The remaining dental carious tissue was divided into two layers; one outer layer with discoloured, soft and infected dental carious tissue and one inner layer that was excavated down to the observed uncoloured hard surface of the remaining healthy dentin controlled by tactile procedures.
(§2) Healthy dentin tissue and carious dentin tissue from the innermost layer were collected. This healthy dentin tissue sample and carious dentin tissue sample were then each divided into three samples.
The healthy dentin tissue sample (26 mg) was divided and treated as follows. […] Fluorescence of bounded hydrazine derivate Lucifer Yellow was checked by a UV lamp. […] The third sample, hereinafter denominated sample S3, (7 mg) and the last procedure was treated with NaBH4 (0.5 M in ethanol) and washed with concentrated ethanol to reduce aldehydes and ketones before the addition of an aqueous solution of the hydrazine derivate Lucifer Yellow (13 mM), repeated rinsing with purified water before dried and analysed.
(§3) Thus, in total 6 samples (three from the healthy dentin tissue and three from the carious dentin tissue) were analysed with FTIR within one week after extraction. […]

The subject of experiment [3] is carious dentin tissue. As to the kind of experiment: FTIR of carious dentin tissue treated with hydrazine derivative (Example 3). On the set-up: species or system human.
Description: as §1, §2
The healthy dentin tissue sample (26 mg) was divided and treated as follows. […] Fluorescence of bounded hydrazine derivate Lucifer Yellow was checked by a UV lamp. […] The third sample, hereinafter denominated sample S3, (7 mg) and the last procedure was treated with NaBH4 (0.5 M in ethanol) and washed with concentrated ethanol to reduce aldehydes and ketones before the addition of an aqueous solution of the hydrazine derivate Lucifer Yellow (13 mM), repeated rinsing with purified water before dried and analysed. […]
as §3

In experiment [4] the test system is carious dentin tissue. Kind of experiment: TOF-SIMS of carious dentin tissue treated with hydrazine derivative (Example 4). Here is the method:
FTIR-ATR and TOF-SIMS analyses were performed on a sample group consisting of carious tissue inner most layers selected and estimated with an exactness of a working dentist. Samples were pooled from 4-6 teeth of inner layer of carious tissue (37 mg). The pooled sample was divided into two subgroups where one was exposed to the hydrazine derivate Lucifer Yellow and further analysed with TOF-SIMS and the other only analysed with FTIR-ATR. An aqueous solution of the hydrazine derivate Lucifer Yellow (1.8 mM) was added to the inner layer carious tissue (19 mg) and after 1 hour exposure washed with an aqueous solution of NaOH (0.5 M) and purified water before dried over vacuum. […] Each sample was attached to double side tape and analysed with a TOF-SIMS instrument (TOF-SIMS IV, CAMECA/IONTOF, GmbH, Germany). Positive secondary ion mass spectra were recorded from different areas of the sample at a size of 200×200 μm^2 and separated in a mass analyser and next compared with known mass spectra from the Ion Spec application (IonTof, GmbH, Germany, ver. 4.1) linked with the TOF-SIMS instrument. Negative secondary ion mass spectra were also recorded but gave no further information. […]
The upper spectrum was recorded for the sample of carious dentin tissue that had been milled but not subjected to treatment with hydrazine (i.e. the carious dentin tissue reference). […]

The subject of experiment [5] is healthy dentin tissue. As to the kind of experiment: TOF-SIMS of healthy dentin tissue treated with hydrazine derivative (Example 4). Particulars: TOF-SIMS positive spectra.
For experiment [6], the system named is smear layer on healthy dentin tissue. Kind of experiment: Staining of drilled dentin of an extracted healthy tooth, smear layer detection (Examples 7 and 8). Here is the method: An extracted tooth in a healthy state with no previous dental restoration was subjected to drilling with the dental drill Cera Bur at a speed of approximately 1500 rpm. The dental drill Cera Bur was from the company Comet USA LLC and is described in EP 1 849 429. […] Therefore, the tooth was subjected to a high-speed dental drill resulting in a cavity exposing dentin tissue, i.e. a dentin tooth surface. The high speed dental drill was the high-speed dental drill Diamond/Fissure bur OB 301A FG from Plandent Forssbergs Dental, Sweden. […] The staining was visually detected using the instrument PoliLed SN06LP1121 operated at 460-470 nm, Faro.
The thus formed smear layer stained with Lucifer Yellow was subjected to drilling with the dental drill Cera Bur at a speed of approximately 1500 rpm after which rinsing with water took place. […] It was concluded that the Cera Bur drill removed the smear layer and the resulting dentin tissue was free of smear layer.
It was concluded that the dentin tooth surface was free of smear layer. […]
An extracted tooth in a healthy state with no previous dental restoration was subjected to a high-speed dental drill resulting in a cavity exposing dentin tissue, i.e. a dentin tooth surface. […] The staining was visually detected using the instrument PoliLed SN06LP1121 operated at 460-470 nm, Faro. […]

Experiment [7] deals with carious dentin tissue. As to the kind of experiment: Staining of carious dentin of a pre molar tooth combined with Carisolv excavation (Example 5). How it is done: Carious dentin tissue of a pre molar tooth was treated with Carisolv® to obtain a cavity and subsequently stained with an aqueous solution of the hydrazine derivative Alexa 594. The concentration of the aqueous solution of the hydrazine derivative Alexa 594 was 15-50 mM. […] Carisolv® was added to the cavity and excavation took place with a hand instrument from Mediteam Dental AB to reach a carious free level. […] A dentist performed tactile control of this surface and confirmed that the surface was free of caries.
The slightly stained surface was subjected to treatment with Carisolv® followed by excavation with a hand instrument. […] It was therefore concluded that all carious dentin tissue of the tooth had been removed. It was concluded that a hydrazine derivative such as Alexa 594 can be used in combination with a chemical means for carious dentin tissue such as Carisolv® for selective detection and removal of carious dentin tissue.

For experiment [8], the system named is carious dentin tissue. As to the kind of experiment: Staining of carious dentin of a pre molar tooth combined with high-speed dental drill (Example 6). The settings on record: 15-50 mM aqueous solution; Diamond/Fissure bur OB 301A FG; repeated several times. How it is done: Carious dentin tissue of a pre molar tooth stained with an aqueous solution of the hydrazine derivative Alexa 594 in a concentration of 15-50 mM was subjected to mechanical treatment by a dental drill until no staining could be visually detected. The dental drill was a high-speed dental drill Diamond/Fissure bur OB 301A FG from Plandent Forssbergs Dental, Sweden. […] The stained surface was subjected to drilling until no staining could be visually detected. A dentist examined the surface visually and with a tactile instrument and concluded that the surface was free of caries. […] Again, drilling of the stained surface took place until no staining could be observed. […] Drilling and staining as described above in this example was repeated several times. […] This is in contrast to the successful selective detection and removal of carious dentin tissue using a hydrazine derivative in combination with a chemical means for treatment of carious dentin tissue as described in Example 5.

Entries after “also recorded” stand apart in the source; their conditions may differ.

`CC(=O)Nc1cc(S(=O)(=O)[O-])cc2cc(S(=O)(=O)[O-])c(/N=N/c3ccccc3)c(O)c12.[Na+].[Na+]` [Acid red 1]: the “staining of tooth slice after incubation with 1 M NaCl” value in experiment [1] (150 μm slices left overnight in colour, MQ rinse, 1 M NaCl overnight) is on record as “only little staining remained”. Also, in experiment [1], the “colouring of tooth slice after NaCl and NaOH treatment (Day 4)” value (“colouring of tooth slice” for short) is recorded as “no colouring”; the “mode of binding to carious tissue in infected teeth (conclusion)” value (“mode of binding to carious tissue” below) is on record as “binds in a reversible way”. Further, in experiment [1] (rinsing, general statement of the description), the “effect of rinsing on dye-labelled carious dentin tissue” value was “release of the dye bonded to the carious dentin tissue”.
For the molecule `Cc1c(CC(=O)NN)c(=O)oc2cc(N)c(S(=O)(=O)O)cc12` [Alexa 350], in experiment [1], the “colouring of tooth slice” value was “still contained colourants”; the “mode of binding to carious tissue” value is given as “bind irreversibly”.
Turning to `NNC(=O)NN1C(=O)c2cc(S(=O)(=O)O)cc3c(N)c(S(=O)(=O)O)cc(c23)C1=O` [Lucifer Yellow], the “colouring of tooth slice” value in experiment [1] is recorded as “still contained colourants”; in experiment [1] (listed as Lucifer Yellow sodium salt), “staining”. Besides, in experiment [1], the “mode of binding to carious tissue” value is recorded as “bind irreversibly”. Besides, the “reaction with healthy dentin tissue” value in experiment [2] is on record as “no reaction takes place”. The “selectivity carious versus healthy dentin tissue” value in experiment [3] (FTIR conclusion) and in experiment [4] (TOF-SIMS conclusion) was “selectively reacts with carious dentin tissue” each time. The “reaction with carious dentin tissue” value in experiment [3] (FTIR, peak at 1740 cm-1 no longer present, FIG. 3d) was “reaction has taken place”. In experiment [4] (TOF-SIMS positive spectra, 1.8 mM, 1 hour exposure, NaOH wash), the “bonding to carious dentin tissue” value is recorded as “covalently bonded”. Further, the “reaction with healthy dentin” value in experiment [5] is reported as “did not react with healthy dentin”. In addition, in experiment [6] (aqueous solution 15-50 mM, 1500 rpm, rinsing with water), the “staining after drilling the smear layer with round type steel dental drill” value is “resulted in staining”. The “staining of smear layer (conclusion)” value in experiment [6] (smear layer formed by high-speed dental drill on healthy tooth) is recorded as “stained this smear layer”.
For `NNC(=O)CSCC(=O)Nc1ccc(-c2c3ccc(=O)cc-3oc3cc(O)ccc23)c(C(=O)O)c1` [5-(2-2-hydrazinyl-2-oxoethylthio)acetamido)-2-(3-hydroxy-6-oxo-6H-xanthen-9-yl)benzoic acid], in experiment [1], the “colouring of tooth slice” value is recorded as “still contained colourants; also recorded: staining”; the “mode of binding to carious tissue” value is listed as “bind irreversibly”.
For “6-(2-carboxy-5-(hydrazinecarbonyl)phenyl)-1,2,2,10,10,11-hexamethyl-2,10-dihydro-1H-pyrano[3,2-g]diquinoline-11-ium-4,8-diyl)methanesulfonate [Alexa Fluor® 594]”, in experiment [1], the “colouring of tooth slice” value is recorded as “still contained colourants”; the “mode of binding to carious tissue” value is recorded as “bind irreversibly”. Besides, the “colouring of tooth slice” value in experiment [1] (listed as Alexa Fluor 594 ®) is given as “staining”. Also, in experiment [7], the “detection of carious dentin tissue compared with tactile control by a dentist” value was “better and more sensitive”. Also, the “staining of carious cavity” value in experiment [7] (15-50 mM aqueous solution, cavity obtained with Carisolv) is reported as “intense dark bluish colour”. For the same molecule, the “staining of surface judged caries free by tactile control” value in experiment [7] (after Carisolv and hand-instrument excavation) is “very slight staining”. Further, the “staining after second Carisolv treatment and excavation” value in experiment [7] (final staining attempt) is on record as “no staining took place”. Further, the “staining after drilling with high-speed dental drill” value in experiment [8] was “staining always took place”.

The values above are taken from US20150313801A1, “DETECTION OF CARIOUS DENTIN TISSUE AND REMOVAL THEREOF BY MEANS OF A DENTAL INSTRUMENT” (RLS GLOBAL AB, priority 2012, published 2015).
